Reference: patent US9181223B2, “2-aminopyrimidin-6-ones and analogs exhibiting anti-cancer and anti-proliferative activities” (Deciphera Pharmaceuticals, LLC, priority 2013, dated 2015)
pIC50: −log10 of the molar value.

Legend:
PC-3 M-luc cells = assay: PC-3 peritibial implant model of cancer bone metastasis; assay type: in vivo, mouse; settings: oral dose of 30 mg/kg twice daily for 39 days; scale 0-4; vehicle-treated animals 4
Text: PC-3 Peritibial Implant Model of Cancer Bone Metastasis To evaluate in vivo anti-cancer activity of compounds of formula I, the PC-3 M-luc peritibial injection model of bone invasiveness model was employed. Briefly, PC-3 M-luc cells were obtained from Xenogen Corporation (Caliper Life Sciences) and expanded using MEM media modified with L-Glutamine (Cell Gro® #10-045-CV) supplemented with 10% fetal bovine serum, 1% penicillin-streptomycin-glutamine, 1% non-essential amino acids, and 1% MEM vitamins in 5% CO2 atmosphere at 37° C. Six to 7 week old male nude mice (Crl:NU-Foxnlnu) were obtained from Charles River Laboratories. Test mice were implanted peritibially on Day 0 with 1×10^6 cells/mouse (0.1 ml) using an insulin syringe with a fixed 28-gauge needle. The needle was inserted at the ankle between the tibia and fibula until the bevel of the needle reached approximately half way between the knee and ankle. Treatments began on Day 0. Animals were dosed by oral gavage twice daily for the study duration. All procedures carried out in this experiment were conducted in compliance with all the laws, regulations and guidelines of the National Institutes of Health (NIH). […]

[1] = biological target: T1, unphosphorylated PDGFRβ kinase (uPDGFRβ, Seq. ID No. 3) (Homo sapiens, UniProt P09619); assay: uPDGFRβ kinase assay (ADP production coupled to pyruvate kinase/lactate dehydrogenase); assay type: biochemical; settings: enzymatic assay, ATP 500 μM
T1 construct: purchased DeCode
Method: Unphosphorylated […]β) Kinase (Seq. ID No. 3) Assay Activity of unphosphorylated PDGFRβ kinase ([…] No. 3) was determined by following the production of ADP from the kinase reaction with ATP and poly E4Y as substrates through coupling with the pyruvate kinase/lactate dehydrogenase system (e.g., Schindler et al. Science (2000) 289: 1938-1942). In this assay, the oxidation of NADH (thus the decrease at A340 nm) was continuously monitored spectrophometrically. The reaction mixture (100 μL) contained PDGFRβ (DeCode, 15.7 nM), polyE4Y (2.5 mg/mL), MgCl2 (10 mM), pyruvate kinase (4 units), lactate dehydrogenase (0.7 units), phosphoenol pyruvate (1 mM) and NADH (0.28 mM) and ATP (500 μM) in a 90 mM Tris buffer containing 0.2% octyl-glucoside and 1% DMSO, at pH 7.5. The inhibition reaction was started by mixing serial diluted test compound with the above reaction mixture. The absorption at 340 nm was monitored continuously for 4 h at 30° C. on a Polarstar Optima or Synergy 2 plate reader. The reaction rate was calculated using the 1.5 to 2.5 h time frame. Percent inhibition was obtained by comparison of reaction rate with that of a control (i.e. with no test compound). IC50 values were calculated from a series of percent inhibition values determined at a range of inhibitor concentrations using software routines as implemented in the GraphPad Prism software package.

osteoclast precursors = assay: Osteoclast tartrate-resistant acid phosphatase assay; assay type: cell-based; settings: tartrate-resistant acid phosphatase activity, RANKL and M-CSF, 7-14 days
Method: Osteoclast Tartrate-Resistant Acid Phosphatase Assay
A serial dilution of test compound was dispensed into a 384-well black clear bottom plate (Nalge Nunc International, Rochester, N.Y.). Compound was diluted by the addition of DMEM media supplemented with 10% characterized fetal bovine serum (Invitrogen, Carlsbad, Calif.). Diluted compound was transferred to a 384-well black clear bottom plate. Two-thousand five hundred osteoclast precursors (Lonza, Walkersville, Md.) were added per well in growth media containing Receptor Activator of Nuclear Factor Kappa-beta ligand (RANKL) and M-CSF (R&D Systems, Minneapolis, Minn.). Plates were incubated for 7-14 days at 37 degrees Celsius, 5% CO2, and 95% humidity to allow differentiation of osteoclast precursors. At the end of the incubation period, 10 μL of supernatant from each well was transferred to a clear 384-well plate. Tartrate-resistant acid phosphatase activity in the supernatant samples was determined using an acid phosphatase assay kit (Sigma, St. Louis, Mo.). Absorbance was measured at 550 nm using a plate reader. Data was analyzed using Prism software (Graphpad, San Diego, Calif.) to calculate IC50 values.

[2] = biological target: T2, unphosphorylated c-KIT kinase (uKIT, Seq. ID no. 2) (Homo sapiens, UniProt P10721); assay: uKit kinase assay (ADP production coupled to pyruvate kinase/lactate dehydrogenase); assay type: biochemical
T2 construct: uKit with N-terminal GST fusion used for screening
Method: In this assay, the oxidation of NADH (thus the decrease at A340 nm) was continuously monitored spectrophometrically. […] The inhibition reaction was started by mixing serial diluted test compound with the above reaction mixture. The absorption at 340 nm was monitored continuously for 4 hours at 30° C. on Synergy 2 plate reader (BioTech).

T2 sequence (P10721 with tags, fused parts or gaps): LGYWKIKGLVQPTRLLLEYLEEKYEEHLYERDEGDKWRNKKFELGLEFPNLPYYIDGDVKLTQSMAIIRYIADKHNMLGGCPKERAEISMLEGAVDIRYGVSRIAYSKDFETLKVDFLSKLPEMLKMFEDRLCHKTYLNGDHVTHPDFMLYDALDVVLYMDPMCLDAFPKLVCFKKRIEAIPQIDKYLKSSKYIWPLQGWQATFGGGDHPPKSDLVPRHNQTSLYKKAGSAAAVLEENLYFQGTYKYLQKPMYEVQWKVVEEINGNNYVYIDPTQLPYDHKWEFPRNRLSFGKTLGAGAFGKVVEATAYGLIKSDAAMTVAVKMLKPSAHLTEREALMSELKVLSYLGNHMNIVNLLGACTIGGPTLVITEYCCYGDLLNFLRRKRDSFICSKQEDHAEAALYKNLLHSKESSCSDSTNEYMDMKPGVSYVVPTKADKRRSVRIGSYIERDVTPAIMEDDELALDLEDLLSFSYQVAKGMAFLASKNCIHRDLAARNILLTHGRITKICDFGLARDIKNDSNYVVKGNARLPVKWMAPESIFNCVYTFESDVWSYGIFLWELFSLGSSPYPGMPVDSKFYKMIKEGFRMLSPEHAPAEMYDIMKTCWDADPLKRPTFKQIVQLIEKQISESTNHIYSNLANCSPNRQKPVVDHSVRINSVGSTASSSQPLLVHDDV
T1 sequence (P09619 557-1106): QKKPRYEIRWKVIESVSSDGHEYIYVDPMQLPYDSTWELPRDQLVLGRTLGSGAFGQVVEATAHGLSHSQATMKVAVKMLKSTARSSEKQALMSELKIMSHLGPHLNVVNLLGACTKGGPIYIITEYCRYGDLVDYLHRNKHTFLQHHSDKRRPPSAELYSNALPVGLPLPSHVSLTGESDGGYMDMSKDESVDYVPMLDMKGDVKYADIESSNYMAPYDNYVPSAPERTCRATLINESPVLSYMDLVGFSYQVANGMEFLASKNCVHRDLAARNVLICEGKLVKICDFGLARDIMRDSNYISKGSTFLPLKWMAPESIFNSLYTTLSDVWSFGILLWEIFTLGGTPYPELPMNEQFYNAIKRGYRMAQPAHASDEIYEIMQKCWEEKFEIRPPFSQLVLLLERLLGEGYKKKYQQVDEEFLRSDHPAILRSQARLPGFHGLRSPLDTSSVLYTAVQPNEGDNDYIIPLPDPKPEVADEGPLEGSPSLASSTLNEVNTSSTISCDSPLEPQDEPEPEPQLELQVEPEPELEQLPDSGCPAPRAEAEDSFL

Cc1nc(-c2cnc(NC(C)C)n(C)c2=O)ccc1Oc1ccnc(-c2cnn(C)c2)c1 [Example 10, 2-(isopropylamino)-3-methyl-5-(6-methyl-5-((2-(1-methyl-1H-pyrazol-4-yl)pyridin-4-yl)oxy)pyridin-2-yl)pyrimidin-4(3H)-one]
lesion score (PC-3 M-luc cells): 2
pIC50 [1]: < 6.00
pIC50 (osteoclast precursors): > 8.00
pIC50 [2]: 6.00 to 7.00
